Source: PubChem BioAssay (NCI)
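96-well plates; 48 h exposure; 5 concentrations. Endpoints by linear interpolation between flanking doses. Not reached: highest tested concentration assigned. At the TGI there is no net growth.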

How the values were obtained:
Assay in all cases: NCI tumour cell line growth inhibition, 48 h
[1] = system: HT29 colon
[2] = system: RPMI-8226 leukemia
[3] = system: CAKI-1 renal
[4] = system: DMS 273 small cell lung
[5] = system: SF-539 CNS
[6] = system: OVCAR-5 ovarian
[7] = system: KM12 colon
[8] = system: UACC-257 melanoma
[9] = system: HL-60(TB) leukemia
[10] = system: SK-MEL-2 melanoma
[11] = system: OVCAR-3 ovarian
[12] = system: UO-31 renal
[13] = system: UACC-62 melanoma
[14] = system: HOP-92 NSCLC
[15] = system: SW-620 colon
[16] = system: MALME-3M melanoma
[17] = system: LOX IMVI melanoma
[18] = system: HCT-116 colon
[19] = system: SR leukemia
[20] = system: SNB-19 CNS
[21] = system: K-562 leukemia
[22] = system: A498 renal
[23] = system: A549 NSCLC
[24] = system: M19-MEL melanoma
[25] = system: OVCAR-8 ovarian
[26] = system: TK-10 renal
[27] = system: SK-MEL-28 melanoma
[28] = system: SK-OV-3 ovarian
[29] = system: NCI-H23 lung
[30] = system: EKVX NSCLC
[31] = system: SK-MEL-5 melanoma
[32] = system: HOP-18 NSCLC
[33] = system: HOP-62 NSCLC
[34] = system: IGROV1 ovarian
[35] = system: U251 CNS
[36] = system: SF-268 CNS
[37] = system: NCI-H522 lung
[38] = system: LXFL 529 NSCLC
[39] = system: SNB-78 CNS
[40] = system: 786-0 renal
[41] = system: SF-295 CNS
[42] = system: RXF 393 renal
[43] = system: MOLT-4 leukemia
[44] = system: NCI-H460 lung
[45] = system: DLD-1 colon
[46] = system: M14 melanoma
[47] = system: CCRF-CEM leukemia
[48] = system: HCT-15 colon
[49] = system: KM20L2 colon
[50] = system: DMS 114 small cell lung
[51] = system: XF 498 CNS
[52] = system: HCC-2998 colon
[53] = system: OVCAR-4 ovarian
[54] = system: SN12C renal
[55] = system: COLO 205 colon
[56] = system: SNB-75 CNS
[57] = system: ACHN renal
[58] = system: NCI-H226 lung

Measured: TGI

CC(C)(Oc1ccc(C(=O)c2ccc(Cl)cc2)cc1Cl)C(=O)Nc1c(Cl)cccc1Cl
not listed: [52] | [53] | [54] | [55] | [56] | [57] | [58]
> 100 µM: all other assays above

COC(=O)C(Cc1nc2ccc(Cl)cc2[nH]c1=O)/C(=N/O)C(=O)Nc1cccc(Cl)c1C (stereo not given)
not listed: [14]
> 100 µM: all other assays above

Cc1nc2nnnn2c2c1C(=O)Nc1ccccc1N2
not listed: [3] | [6] | [22] | [31] | [48] | [53]
> 100 µM: all other assays above
